Patent US9573960B2, “Glioblastoma inhibiting compounds and their use” (Life & Brain GmbH, priority 2011, dated 2017)

Columns and labels:
[1] = test system: patient-specific primary human glioblastoma cells (pGBMs); test: Pharmacodynamic analysis of GAA and GA, AlamarBlue (IMC50); assay type: cell-based; settings: for inhibition of the metabolic activity of pGBMs: FIG. 14A
Description: To validate the results obtained from primary screening, these compounds were purchased from independent suppliers (FIG. 13). Pharmacodynamic analysis was conducted by determining the concentrations that decreased the metabolic activity of pGBMs to 50% control levels (IMC50). […] For further analysis, pGBMs were collected at five days following single-dose in vitro application of the respective compound.
(§1) Considering the cellular and genetic diversity that characterizes GBM, we next investigated GAA's pharmacological effect in 17 pGBM samples derived from 11 patients (see Table 2 for list of samples and patient data). […] Next, pair-wise comparison of GAA-pharmacodynamics was performed in pGBMs to stratify results according to key clinical constellations (Bredel et al., 2011; Glas et al., 2010; Simpson et al., 2006; Weller et al., 2010). Glioblastoma samples derived from (i) the tumor center vs. periphery region of the same patient, (ii) primary vs. recurrent disease of the same patient, (iii) MGMT-promoter hypermethylated vs. unmethylated tissue, (iv) p53 wild type vs. p53 mutated samples, as well as from (v) NFKBIA wild type vs. NFKBIA deleted genotypes.
For pharmacodynamic analysis, 5×10^4 cells were plated in 12-well-plates at 24 hours before application of compound-series. […] Experiments were performed in triplicates. IMC50 was defined as the compound concentration that reduced the metabolic activity by 50% compared to control conditions and determined via data analysis in GraphPad Prism 4.0.

[2] = test system: LN229, T98G, U87, U138, and U373 cells; test: Pharmacodynamic analysis in commercial glioma/GBM cell lines; assay type: cell-based; settings: compared with pGBM IMC50's
Description: as §1
For pharmacodynamic analysis, 5×10^4 cells were plated in 12-well-plates at 24 hours before application of compound-series. AlamarBlue®-based analysis was conducted at 5 days post treatment. Experiments were performed in triplicates. IMC50 was defined as the compound concentration that reduced the metabolic activity by 50% compared to control conditions and determined via data analysis in GraphPad Prism 4.0.

[3] = test system: self-renewing, multipotent cells among pGBMs; test: Neurosphere assay after GA or GAA pre-treatment; assay type: cell-based, human; settings: single pre-treatment, vital cells collected at day 5
Excerpt: In a next series of experiments we aimed to determine the influence of the compounds on the activity of tumor-initiating cells (TICs). TICs embody a severe functional consequence of intra-tumor heterogeneity as, at least in human glioblastoma, it is anticipated that they are represented by a small subpopulation of stem-like, i.e. self-renewing and multipotent cells (e.g. Sties and Rowitch, 2008; Zhou et al., 2009). In previous work, we established their frequencies in the range from 0.25 to 1% among culture passage 5-10 pGBMs (see Glas et al., 2010). To estimate potential compound-induced alterations to the pool of self-renewing and multipotent cells in pGBMs, the neurosphere assay (NSA) was applied as recently described (Scheffler et al., 2005; Glas et al., 2010). Heterogeneous pGBM samples (#'s 046, 078, 106) were exposed to the compounds, vital cells were collected at day 5, and processed under non-adherent conditions in the NSA (neurosphere assay, see methods).
The neurosphere assay was performed to estimate the frequency of self-renewing clonogenic cells according to established protocols (Glas et al., 2010; Scheffler et al., 2005). Neurospheres were quantified at 21 days in culture, triturated to a single cell suspension, and re-plated for analysis of the secondary and tertiary neurospheres. […]

pGBMs (#046) = test: Orthotopic xenotransplantation of pre-treated pGBMs; assay type: in vivo, Rag2Il2rg−/− mice; settings: pGBMs pre-treated 5 days at IMC50, 10^6 cells into striatum, vs DMSO
Description: FIG. 18: Gambogig acid amide decreases the tumor-initiating potential of pGBMs. pGBMs (#046) were treated with IMC50 concentrations of the respective compounds for 5 days in vitro. […] surviving vital cells were subsequently collected and injected into the striatum of adult immunocompromised mice (n=5 for each experiment). (A) Kaplan-Meier curves show no significant survival advantage upon injection of pGBMs pre-treated with gambogic acid (dotted) vs. DMSO controls (solid).
Cells were harvested, counted and re-suspended in 0.1% DNase/PBS. Cellular viability was confirmed via trypan blue exclusion. 10^6 DMSO-control-, gambogic acid or gambogic acid amide-pretreated pGBMs were injected stereotactically into the striatum of 12 week old Rag2Il2rg^−/− mice (0.8 mm anterior, 2 mm lateral, 3 mm deep). Mice were monitored daily and euthanized upon presentation with signs of distress/neurological symptoms or significant weight loss. For subsequent histological analysis, brains were removed, cryoprotected, and serially cut on a cryostat (Leica) at 20 μm thickness. Every fifth section underwent routine H&E staining for histological analysis of tumor formation.

[4] = test system: CD133+ vs. CD133− pGBM cells; test: CD133+ vs CD133- pGBM cells, metabolic activity and cell confluency; assay type: cell-based, human; settings: IMC50, 5 days after single exposure
Excerpt: FIG. 19: Preferred targeting of CD133^+ GBM cells by Gambogig acid amide. (A) FACS-based identification and sorting of CD133^+ subpopulations from pGBMs (#106, top; #058, bottom). Note the respective frequency of CD133^+ cells is indicated within the panel). (B) Relative metabolic activity and cell confluency of CD133-positive vs. CD133-negative pGBM cells determined at 5 days after single exposure of Gambogic acid (IMC50, top) and Gambogic acid amide (IMC50, bottom). Note the selective sensitivity of CD133^+ cells in response to application of Gambogic acid amide.
To further corroborate the cancer stem cell-specific inhibitory activity of GAA, we selected CD133-positive and -negative cell populations from pGBMs (FIG. 19). CD133^+ cells are known among glioblastoma samples to represent a minority of tumorigenic stem-like phenotypes (Singh et al., 2004). Comparative evaluation of the inhibitory effects induced by GAA and GA on CD133^+ vs. CD133^− pGBM cells confirmed our assumption.
For fluorescence-activated cell separation (FACS), cells were stained with CD133/2-PE or with CD133/2-APC (both 1:20; Miltenyi Biotech) and sorted on a BD FACS DiVa Cell Sorter (Becton Dickinson).

[5] = test system: four patient-specific primary GBM cultures; settings: 1 μM
Description: (§2) Before screening, cell number was titrated for each cell line separately to ensure that cell proliferation remained in a linear-exponential phase throughout the experiment. 24 hours after seeding 2−3×10^3 cells/well into laminin/poly-L-ornithine coated 96-well plates, primary cultures were treated with 2 nM, 1 μM or 10 μM of each compound (stock solution 10 mM in DMSO). As a reference we treated cells with 50 μM and 500 μM temozolomide (TMZ, SigmaAldrich, Taufkirchen, Germany; stock solution of 100 mM in DMSO). Control cells were treated with 0.5-0.01% DMSO. Six days after application, cell viability was determined using the AlamarBlue® assay according to the manufacturers recommendations (Invitrogen, Karlsruhe, Germany). Fluorescence was measured using an Infinite200 microplate reader (Tecan, Crailsheim, Germany) at Xex=540 nm and Xem=590 nm. Experiments were performed in triplicates for each sample.
(§3) To identify cytotoxic and cytostatic compounds, we conducted in vitro drug-screening assays in four different patient-specific primary GBM cultures (see Table 1 for basic characterization of research specimens).
(§4) The compound library was screened at three different concentrations (10 μM, 1 μM, 2 nM). The relative metabolic activity was determined after a 5-day incubation with compounds. […] For reference, we applied 50 μM (reported plasma peak concentration) and 500 μM of temozolomide (TMZ, as described in Beier et al., 2008), the current standard chemotherapeutic GBM drug to our cells. […] However, “hits” in the setting of a primary screening were defined as a reduction of the relative metabolic activity under the level of 50% of DMSO-treated control cells.

[6] = test system: four patient-specific primary GBM cultures; test: cells; settings: Homo sapiens, read-out: cellular viability of pGBMs, control levels
Description: as §2, §3, §4

CC(C)=CCC[C@]1(C)C=Cc2c(O)c3c(c(CC=C(C)C)c2O1)O[C@]12C(=C[C@@H]4CC1C(C)(C)O[C@@]2(C/C=C(/C)C(N)=O)C4=O)C3=O [GAA, Gambogic acid amide]
inhibition of the metabolic activity of pGBMs [1]: effectively and to a comparable degree
time of induction of inhibitory activity ([1]; day 1, 2 or 5 following exposure, versus Gambogic acid): earlier time point
IC50 ([1]; pGBM #106, day 5): 514 nM
IC50 ([1]; pGBM #132, day 5): 78 nM
inhibitory activity compared with GA (dose-response) ([1]; triplicate analysis for each sample): consistently at lower concentrations
inhibitory activity in commercial glioma/GBM cell lines [2]: Comparable results
frequency of self-renewing, multipotent cells (primary, secondary, tertiary spheres) [3]: considerably reduced frequency
survival of animals that received pre-treated pGBMs (pGBMs (#046)): significantly increased survival
selective reduction of cell growth and viability among CD133+ vs CD133− cells [4]: significantly stronger reduction
cellular viability of pGBMs, control levels [5]: below 50%

CC(C)=CCC[C@]1(C)C=Cc2c(O)c3c(c(CC=C(C)C)c2O1)O[C@]12C(=C[C@@H]4C[C@H]1C(C)(C)O[C@@]2(C/C=C(/C)C(=O)O)C4=O)C3=O [GA, Gambogic acid]
inhibition of the metabolic activity of pGBMs [1]: effectively and to a comparable degree
frequency of self-renewing, multipotent cells (primary, secondary, tertiary spheres) [3]: no GA-induced alteration
survival of animals that received pre-treated pGBMs (pGBMs (#046)): not evident
selective reduction of cell growth and viability among CD133+ vs CD133− cells [4]: could not be revealed
viability at 1 µM [6]: < 50%
